# Measurements as given in patent publication US4016158A, “Cephalosporin derivatives” (Roussel-UCLAF, priority 1971, dated 1977).
# Read-outs that look alike come from different tables or passages of the source.
# How the values were obtained:
# [1] = transcutaneous toxicity in rats; conditions: rat, in vivo, topical or ocular, male rats
# [2] = test system: Staphylococcus aureus 980; assay: MIC (Table II); format: cell-based; conditions: 24h, read-out: minimum inhibition concentration
# Protocol: (§1) The antibiotic activity was determined by the diffusion method in a gelose medium at a pH of 7. The following Table expresses the minimum concentration of inhibition in mcg/ml (CMl) for the products against different microbial strains.
# (§2) Using the same procedure as in Table I, the minimum inhibition concentration in mcg/ml was determined against different microbial strains with L(-) cis 7-[D(-)-α-aminophenylacetamido]-3-isopropyl-3-cepheme-4-carboxylic acid (product A) of Example 9.
# Escherichia coli 070 = assay: MIC (Table II); format: cell-based; conditions: read-out: minimum inhibition concentration
# Protocol: as §1, §2
# Shigella flexneri = assay: MIC (Table II); format: cell-based; conditions: read-out: minimum inhibition concentration
# Protocol: as §1, §2
# Escherichia coli 5369 = assay: MIC (Table II); format: cell-based; conditions: read-out: minimum inhibition concentration
# Protocol: as §1, §2
# Escherichia coli 4965 = assay: MIC (Table II); format: cell-based; conditions: read-out: minimum inhibition concentration
# Protocol: as §1, §2
# Escherichia coli 3019 = assay: MIC (Table II); format: cell-based; conditions: read-out: minimum inhibition concentration
# Protocol: as §1, §2
# [3] = test system: Salmonella typhimurium 420; assay: MIC (Table II); format: cell-based; conditions: Salmonella enterica, read-out: minimum inhibition concentration
# Protocol: as §1, §2
# Proteus mirabilis 1668 = assay: MIC (Table II); format: cell-based; conditions: read-out: minimum inhibition concentration
# Protocol: as §1, §2
# [4] = test system: Staphylococcus aureus 017; assay: MIC (Table II); format: cell-based; conditions: read-out: minimum inhibition concentration
# Protocol: as §1, §2
# Escherichia coli 51 = assay: MIC (Table II); format: cell-based; conditions: read-out: minimum inhibition concentration
# Protocol: as §1, §2
# solubility = format: physicochemical
# Strept. Fecalis 5432 = assay: MIC, diffusion method in gelose medium at pH 7 (Table I); format: cell-based; conditions: Strept. Fecalis 5432, pH 7; read-out: minimum concentration of inhibition
# Protocol: as §1
# Staph. U.C. 1128 P(-) = assay: as above; format: cell-based; conditions: Staph. UC 1128, penicillin resistant, read-out: minimum concentration of inhibition
# Protocol: as §1
# Bac. Subt. = assay: as above; format: cell-based; conditions: Bac. Subt., pH 7; read-out: minimum concentration of inhibition
# Protocol: as §1
# Escher. Coli UC 1020 = assay: as above; format: cell-based; conditions: Escherichia coli, UC1020; Escher. Coli UC 1020, pH 7; read-out: minimum concentration of inhibition
# Protocol: as §1
# Escher. Coli UC 1261 = assay: as above; format: cell-based; conditions: Escherichia coli, UC1261; Escher. Coli UC 1261, pH 7; read-out: minimum concentration of inhibition
# Protocol: as §1
# Pseudomonas = assay: as above; format: cell-based; conditions: read-out: minimum concentration of inhibition
# Protocol: as §1
# [5] = test system: Strept. hemoly. Todd Hewitt; assay: as above; format: cell-based; conditions: Strept. hemoly. Todd Hewitt, pH 7; read-out: minimum concentration of inhibition
# Protocol: as §1
# [6] = test system: Staph. aureus oxford U.C. 1061 P(+); assay: as above; format: cell-based; conditions: Staphylococcus aureus, UC1061; Staph. aureus oxford UC 1061, penicillin sensitive, pH 7; read-out: minimum concentration of inhibition
# Protocol: as §1
# Shigella sonnei = assay: bactericidal activity (germs still alive); format: cell-based; design: key to germs still alive: +++: all the germs are still alive; +: it remains some colonies; -: it does not remain any germ
# Protocol: (§3) The bactericidal activity of product A was ascertained by determining the number of germs still alive after treatment with increasing doses of antibiotic on a liquid media. From the cultures in tubes having 72 hours (previously described method), were placed on agar in Petri dishes a constant sample of the last tube having grown and of the following tubes where no more growth in transillumination is observed. After 48 hours of culture in the Petri dishes, the number of colonies was ascertained.
# [7] = test system: Staphylococcus aureus 1098; assay: bactericidal activity (germs still alive); format: cell-based; design: key to germs still alive: +++: all the germs are still alive; +: it remains some colonies; -: it does not remain any germ
# Protocol: as §3
# [8] = test system: Staphylococcus aureus 54146; assay: bactericidal activity (germs still alive); format: cell-based; design: key to germs still alive: +++: all the germs are still alive; +: it remains some colonies; -: it does not remain any germ
# Protocol: as §3
# [9] = test system: Staphylococcus aureus 8514; assay: bactericidal activity (germs still alive); format: cell-based; design: key to germs still alive: +++: all the germs are still alive; +: it remains some colonies; -: it does not remain any germ
# Protocol: as §3
# [10] = test system: Staphylococcus aureus 9482; assay: bactericidal activity (germs still alive); format: cell-based; design: key to germs still alive: +++: all the germs are still alive; +: it remains some colonies; -: it does not remain any germ
# Protocol: as §3
# oral toxicity in rats = conditions: rat, in vivo
# Protocol: The oral toxicity of product A was determined on homogenous groups of 10 male rats weighing 100 to 110 g by administering orally a 0.25% by weight dispersion of product A in an aqueous suspension of carboxymethyl cellulose with an esophagus probe. […] The rats in the test were held in a place in which the air was filtered and sterilized by ultraviolet light and the temperature was held at 22° ± 1° C with a controlled humidity.
smiles,measurement,setting,value
"CC(C)C1=C(C(=O)O)N2C(=O)[C@@H](NC(=O)[C@H](N)c3ccccc3)[C@H]2SC1 [Example 9, L (+) cis 7-[D (-)-α-aminophenylacetamido]-3-isopropyl-3-cepheme-4-carboxylic acid]",LD50 at 192 h,[1],> 1600 mg/kg
same,MIC,[2],> 40 µg/mL
same,MIC,Escherichia coli 070; 24h,40 µg/mL
same,MIC,Escherichia coli 070; 48h,40 µg/mL
same,MIC,Escherichia coli 070; 72h,40 µg/mL
same,MIC,Shigella flexneri; 24h,20 µg/mL
same,MIC,Shigella flexneri; 48h,40 µg/mL
same,MIC,Shigella flexneri; 72h,40 µg/mL
same,MIC,Escherichia coli 5369; 24h,30 µg/mL
same,MIC,Escherichia coli 5369; 48h,40 µg/mL
same,MIC,Escherichia coli 5369; 72h,100 µg/mL
same,MIC,Escherichia coli 4965; 24h,30 µg/mL
same,MIC,Escherichia coli 4965; 48h,40 µg/mL
same,MIC,Escherichia coli 4965; 72h,40 µg/mL
same,MIC,Escherichia coli 3019; 24h,30 µg/mL
same,MIC,Escherichia coli 3019; 48h,40 µg/mL
same,MIC,Escherichia coli 3019; 72h,40 µg/mL
same,MIC,[3]; 24h,60 µg/mL
same,MIC,[3]; 48h,60 µg/mL
same,MIC,[3]; 72h,> 100 µg/mL
same,MIC,Proteus mirabilis 1668; 24h,100 µg/mL
same,MIC,Proteus mirabilis 1668; 48h,> 100 µg/mL
same,MIC,[4]; 24h,2 µg/mL
same,MIC,[4]; 48h,5 µg/mL
same,MIC,[4]; 72h,15 µg/mL
same,MIC,Escherichia coli 51; 24h,100 µg/mL
same,MIC,Escherichia coli 51; 48h,> 100 µg/mL
same,solubility in ethanol,solubility; ethanol,slightly soluble
same,solubility in ether,solubility; ether,insoluble
same,MIC,Strept. Fecalis 5432,20 µg/mL
same,MIC,Staph. U.C. 1128 P(-),2 µg/mL
same,MIC,Bac. Subt.,0.2 µg/mL
same,MIC,Escher. Coli UC 1020,100 µg/mL
same,MIC,Escher. Coli UC 1261,40 to 100 µg/mL
same,MIC,Pseudomonas,> 100 µg/mL
same,MIC,[5],10 µg/mL
same,MIC,[6],0.4 µg/mL
same,germs still alive,Shigella sonnei; 20 μg/ml,+++
same,germs still alive,Shigella sonnei; 30 μg/ml,+
same,number of colonies,Shigella sonnei; 40 μg/ml,9 colonies
same,germs still alive,Shigella sonnei; 60 μg/ml,-
same,germs still alive,[7]; 1 μg/ml,+++
same,germs still alive,[7]; 2 μg/ml,+++
same,number of colonies,[7]; 3 μg/ml,1 colonies
same,germs still alive,[7]; 5 μg/ml,-
same,germs still alive,[8]; 1 μg/ml,+++
same,germs still alive,[8]; 2 μg/ml,+
same,number of colonies,[8]; 3 μg/ml,3 colonies
same,germs still alive,[8]; 5 μg/ml,-
same,germs still alive,[9]; 1 μg/ml,+++
same,germs still alive,[9]; 2 μg/ml,+++
same,number of colonies,[9]; 3 μg/ml,a few
same,germs still alive,[9]; 5 μg/ml,-
same,germs still alive,[10]; 1 μg/ml,+++
same,number of colonies,[10]; 2 μg/ml,1 colonie
same,number of colonies,[10]; 3 μg/ml,2 colonies
same,germs still alive,[10]; 5 μg/ml,-
same,LD50,oral toxicity in rats,> 800 mg/kg
same,abnormal symptoms,oral toxicity in rats; 800 mg/kg,none of the rats presented any abnormal symptoms
